Data: patent US10781204B2, “TYK2 inhibitors and uses thereof” (Nimbus Lakshmi, Inc., priority 2015, dated 2020)

How the values were obtained:
TYK2 = TYK2 (Homo sapiens (Human), UniProt P29597); experiment: Tyk2 radioactive kinase assay; format: biochemical; conditions: ATP 10 μM
Description: (§1) Peptide substrate, [KKSRGDYMTMQIG], (20 μM) is prepared in reaction buffer (20 mM Hepes pH 7.5, 10 mM MgCl2, 1 mM EGTA, 0.02% Brij35, 0.02 mg/mL BSA, 0.1 mM […], 2 mM DTT, 1% DMSO. TYK2 (Invitrogen) kinase is added, followed by compounds in DMSO. ^33PATP is added to initiate the reaction with ATP at 10 μM. Kinase reaction is incubated for 120 min at room temp and reactions are spotted onto P81 ion exchange paper (Whatman #3698-915), and then washed extensively in 0.75% phosphoric acid, prior to reading the radioactivity counts. For JAK2 (Invitrogen) kinase assay the peptide substrate poly[Glu:Tyr] (4:1), 0.2 mg/ml is used, in the reaction carried out the same as for TYK2.

JAK2 = JAK2 (Homo sapiens (Human), UniProt O60674); experiment: JAK2 radioactive kinase assay; format: biochemical; conditions: ATP 10 μM
Description: as §1

[1] = test system: JAK2-pSTAT5 (GM-CSF induced pSTAT5); experiment: GM-CSF induced pSTAT5 in human PBMC; format: cell-based; conditions: 20 min, 5 ng/mL GM-CSF
Description: (§2) Human PBMC are isolated from buffy coat and are stored frozen for assays as needed. Cells for assay are thawed and resuspended in complete media containing serum, then cells are diluted to 1.67 E6 cells/ml so that 120 ul per well is 200,000 cells. 15 ul of compound or DMSO is added to the well at the desired concentrations and incubated at 1 hr at 37 C. 15 ul of stimulus (final concentration of 1.7 ng/mL IL-12) is added for 30 minutes prior to pSTAT4 and total STAT4 analysis using cell lysates prepared and analyzed by MSD reagents as per manufacturer protocol. The final DMSO concentration of compound in the assay is 0.1%.
Cells are prepared for analysis as in the above procedure and 15 ul of GM-CSF (final concentration 5 ng/mL) is added for 20 minutes prior to pSTAT5 and total STAT5 analysis using cell lysates prepared and analyzed by MSD reagents as per manufacturer protocol. The final DMSO concentration of compound in the assay is 0.1%.

[2] = test system: Tyk2-pSTAT4 (IL-12 induced pSTAT4); experiment: IL-12 induced pSTAT4 in human PBMC; format: cell-based; conditions: Homo sapiens, PBMC, 0.5 h, 1.7 ng/mL IL-12, 30 minutes
Description: as §2

Sequence of TYK2 (P29597 whole entry): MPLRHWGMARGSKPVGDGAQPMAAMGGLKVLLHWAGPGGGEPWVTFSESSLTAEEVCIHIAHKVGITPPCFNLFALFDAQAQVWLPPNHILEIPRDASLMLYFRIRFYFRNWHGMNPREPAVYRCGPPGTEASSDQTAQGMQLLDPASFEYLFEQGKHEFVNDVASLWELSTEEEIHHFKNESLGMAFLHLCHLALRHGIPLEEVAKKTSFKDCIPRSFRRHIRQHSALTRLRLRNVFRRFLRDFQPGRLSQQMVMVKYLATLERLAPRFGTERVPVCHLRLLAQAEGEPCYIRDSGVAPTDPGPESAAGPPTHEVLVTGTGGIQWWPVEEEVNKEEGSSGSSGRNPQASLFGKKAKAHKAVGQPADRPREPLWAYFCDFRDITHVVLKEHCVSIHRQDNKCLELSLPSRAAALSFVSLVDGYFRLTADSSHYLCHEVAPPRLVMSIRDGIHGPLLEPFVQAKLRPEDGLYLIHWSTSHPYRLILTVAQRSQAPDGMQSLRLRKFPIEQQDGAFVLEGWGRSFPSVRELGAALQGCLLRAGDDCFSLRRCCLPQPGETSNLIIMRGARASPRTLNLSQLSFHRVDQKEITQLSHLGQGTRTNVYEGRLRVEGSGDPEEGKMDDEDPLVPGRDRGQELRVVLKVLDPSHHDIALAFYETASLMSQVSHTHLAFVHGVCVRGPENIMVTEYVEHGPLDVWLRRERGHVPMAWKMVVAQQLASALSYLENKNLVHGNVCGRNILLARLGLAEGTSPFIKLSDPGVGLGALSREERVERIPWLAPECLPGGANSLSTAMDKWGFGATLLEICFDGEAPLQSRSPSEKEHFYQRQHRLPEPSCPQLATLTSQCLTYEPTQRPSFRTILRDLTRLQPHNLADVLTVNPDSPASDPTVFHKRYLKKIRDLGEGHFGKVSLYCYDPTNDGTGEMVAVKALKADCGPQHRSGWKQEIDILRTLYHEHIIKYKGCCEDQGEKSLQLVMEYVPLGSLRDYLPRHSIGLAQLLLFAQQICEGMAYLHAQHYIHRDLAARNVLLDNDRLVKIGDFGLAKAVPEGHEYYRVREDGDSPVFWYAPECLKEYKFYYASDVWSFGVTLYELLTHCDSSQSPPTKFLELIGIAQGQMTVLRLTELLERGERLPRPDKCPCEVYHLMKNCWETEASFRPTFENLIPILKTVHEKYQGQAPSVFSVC
Sequence of JAK2 (O60674 whole entry): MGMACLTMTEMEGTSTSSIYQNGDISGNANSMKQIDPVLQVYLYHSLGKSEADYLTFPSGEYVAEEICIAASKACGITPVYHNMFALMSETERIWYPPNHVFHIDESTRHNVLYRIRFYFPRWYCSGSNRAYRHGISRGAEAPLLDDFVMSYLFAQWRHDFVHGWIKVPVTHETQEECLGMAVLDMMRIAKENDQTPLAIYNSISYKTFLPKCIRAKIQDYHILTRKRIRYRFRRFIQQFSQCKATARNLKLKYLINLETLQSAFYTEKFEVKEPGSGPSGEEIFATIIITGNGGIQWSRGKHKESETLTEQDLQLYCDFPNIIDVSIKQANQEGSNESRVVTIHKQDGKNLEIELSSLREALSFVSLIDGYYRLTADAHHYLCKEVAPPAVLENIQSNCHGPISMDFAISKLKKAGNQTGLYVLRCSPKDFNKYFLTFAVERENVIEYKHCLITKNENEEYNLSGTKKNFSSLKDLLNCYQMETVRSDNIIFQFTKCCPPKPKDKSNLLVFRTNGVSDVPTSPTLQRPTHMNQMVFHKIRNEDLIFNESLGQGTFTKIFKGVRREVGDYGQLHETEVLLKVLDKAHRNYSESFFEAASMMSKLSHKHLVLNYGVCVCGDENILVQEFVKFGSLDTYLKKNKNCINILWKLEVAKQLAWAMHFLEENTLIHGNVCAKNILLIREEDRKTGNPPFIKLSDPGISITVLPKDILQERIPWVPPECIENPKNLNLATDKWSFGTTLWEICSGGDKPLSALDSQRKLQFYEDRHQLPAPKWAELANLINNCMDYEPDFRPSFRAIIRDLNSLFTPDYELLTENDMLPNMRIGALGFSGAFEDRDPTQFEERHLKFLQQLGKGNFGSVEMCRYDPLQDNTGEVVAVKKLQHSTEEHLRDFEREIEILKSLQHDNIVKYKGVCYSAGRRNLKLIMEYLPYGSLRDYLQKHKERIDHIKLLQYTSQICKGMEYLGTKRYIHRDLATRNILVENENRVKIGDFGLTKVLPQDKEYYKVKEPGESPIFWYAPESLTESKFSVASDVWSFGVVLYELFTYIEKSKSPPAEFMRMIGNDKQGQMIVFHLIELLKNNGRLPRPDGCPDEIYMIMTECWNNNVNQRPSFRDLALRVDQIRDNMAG

Ki (TYK2) [nM]	Ki (JAK2) [nM]	EC50 ([1]; Homo sapiens, PBMC) [nM]	EC50 [2] [nM]	Structure (SMILES)	EC50 [1] [nM]
0.1 to 10	100 to 1000	> 2000	–	CCNC(=O)c1ccn(-c2cc(-c3c(F)cccc3F)nc3c2C(=O)NC3)n1 [I-3, 1-(2-(2,6-difluorophenyl)-5-oxo-6,7-dihydro-5H-pyrrolo[3,4-b]pyridin-4-yl)-N-ethyl-1H-pyrazole-3-carboxamide]	–
0.1 to 10	100 to 1000	> 2000	–	O=C1NCc2nc(-c3c(F)cccc3F)cc(-n3ccc(N4CCC5(CCOCC5)CC4)n3)c21 [I-9, 4-(3-(3-oxa-9-azaspiro[5.5]undecan-9-yl)-1H-pyrazol-1-yl)-2-(2,6-difluorophenyl)-6,7-dihydro-5H-pyrrolo[3,4-b]pyridin-5-one]	–
0.1 to 10	100 to 1000	> 2000	–	N#Cc1cccc(F)c1-c1cc(-n2ccc(C3CCOCC3)n2)c2c(n1)CNC2=O [I-16, 3-fluoro-2-(5-oxo-4-(3-(tetrahydro-2H-pyran-4-yl)-1H-pyrazol-1-yl)-6,7-dihydro-5H-pyrrolo[3,4-b]pyridin-2-yl)benzonitrile]	–
0.1 to 10	10 to 100	> 2000	–	CC1(C)COC(c2ccn(-c3cc(-c4c(F)cccc4C#N)nc4c3C(=O)NC4)n2)=N1 [I-60, 2-(4-(3-(4,4-dimethyl-4,5-dihydrooxazol-2-yl)-1H-pyrazol-1-yl)-5-oxo-6,7-dihydro-5H-pyrrolo[3,4-b]pyridin-2-yl)-3-fluorobenzonitrile]	–
0.1 to 10	10 to 100	> 2000	–	N#Cc1cccc(F)c1-c1cc(-n2ccc(N3CCCC(N)C3)n2)c2c(n1)CNC2=O (stereo not drawn) [I-68, 2-(4-(3-(3-aminopiperidin-1-yl)-1H-pyrazol-1-yl)-5-oxo-6,7-dihydro-5H-pyrrolo[3,4-b]pyridin-2-yl)-3-fluorobenzonitrile]	–
0.1 to 10	10 to 100	> 2000	–	N#Cc1cccc(F)c1-c1cc(-n2ccc(N3CCC[C@H](N)C3)n2)c2c(n1)CNC2=O [I-74, (S)-2-(4-(3-(3-aminopiperidin-1-yl)-1H-pyrazol-1-yl)-5-oxo-6,7-dihydro-5H-pyrrolo[3,4-b]pyridin-2-yl)-3-fluorobenzonitrile]	–
0.1 to 10	0.1 to 10	> 2000	–	N#Cc1cccc(F)c1-c1cc(-n2cc3c(n2)NCCC3)c2c(n1)CNC2=O [I-75, 3-fluoro-2-(5-oxo-4-(4,5,6,7-tetrahydro-2H-pyrazolo[3,4-b]pyridin-2-yl)-6,7-dihydro-5H-pyrrolo[3,4-b]pyridin-2-yl)benzonitrile]	–
0.1 to 10	10 to 100	> 2000	–	N#Cc1cccc(F)c1-c1cc(-n2ccc(N3CCCC(O)(C(F)(F)F)C3)n2)c2c(n1)CNC2=O (stereo not drawn) [I-80, 3-fluoro-2-(4-(3-(3-hydroxy-3-(trifluoromethyl)piperidin-1-yl)-1H-pyrazol-1-yl)-5-oxo-6,7-dihydro-5H-pyrrolo[3,4-b]pyridin-2-yl)benzonitrile]	–
10 to 100	≥ 1000	> 2000	–	CC1CC(O)CC(C)N1c1ccn(-c2cc(-c3c(F)cccc3C#N)nc3c2C(=O)NC3)n1 (stereo not drawn) [I-85, 3-fluoro-2-(4-(3-(4-hydroxy-2,6-dimethylpiperidin-1-yl)-1H-pyrazol-1-yl)-5-oxo-6,7-dihydro-5H-pyrrolo[3,4-b]pyridin-2-yl)benzonitrile]	–
0.1 to 10	100 to 1000	> 2000	–	O=C1NCc2nc(-c3c(F)cccc3F)cc(-n3ccc(N4CCOCC4CO)n3)c21 (stereo not drawn) [I-90, 2-(2,6-difluorophenyl)-4-(3-(3-(hydroxymethyl)morpholino)-1H-pyrazol-1-yl)-6,7-dihydro-5H-pyrrolo[3,4-b]pyridin-5-one]	–
0.1 to 10	10 to 100	> 2000	–	CC1CCC(O)CN1c1ccn(-c2cc(-c3c(F)cccc3C#N)nc3c2C(=O)NC3)n1 (stereo not drawn) [I-96, 3-fluoro-2-(4-(3-(5-hydroxy-2-methylpiperidin-1-yl)-1H-pyrazol-1-yl)-5-oxo-6,7-dihydro-5H-pyrrolo[3,4-b]pyridin-2-yl)benzonitrile]	–
0.1 to 10	10 to 100	> 2000	–	N#Cc1cccc(F)c1-c1cc(-n2ccc(C3CCCO3)n2)c2c(n1)CNC2=O (stereo not drawn) [I-101, 3-fluoro-2-(5-oxo-4-(3-(tetrahydrofuran-2-yl)-1H-pyrazol-1-yl)-6,7-dihydro-5H-pyrrolo[3,4-b]pyridin-2-yl)benzonitrile]	–
0.1 to 10	0.1 to 10	> 2000	–	N#Cc1cccc(F)c1-c1cc(-n2ccc(N3C[C@@H](O)[C@@H](O)C3)n2)c2c(n1)CNC2=O [I-109, 2-(4-(3-((3S,4R)-3,4-dihydroxypyrrolidin-1-yl)-1H-pyrazol-1-yl)-5-oxo-6,7-dihydro-5H-pyrrolo[3,4-b]pyridin-2-yl)-3-fluorobenzonitrile]	–
≥ 1000	≥ 1000	> 2000	–	CN1CC2(CCN(c3ccn(-c4cc(-c5c(F)cccc5C#N)nc5c4C(=O)NC5)n3)CC2)C1 [I-110, 3-fluoro-2-(4-(3-(2-methyl-2,7-diazaspiro[3.5]nonan-7-yl)-1H-pyrazol-1-yl)-5-oxo-6,7-dihydro-5H-pyrrolo[3,4-b]pyridin-2-yl)benzonitrile]	–
0.1 to 10	0.1 to 10	> 2000	–	CC1(C#N)CCCN(c2ccn(-c3cc(-c4c(F)cccc4C#N)nc4c3C(=O)NC4)n2)C1 (stereo not drawn) [I-133, 1-(1-(2-(2-cyano-6-fluorophenyl)-5-oxo-6,7-dihydro-5H-pyrrolo[3,4-b]pyridin-4-yl)-1H-pyrazol-3-yl)-3-methylpiperidine-3-carbonitrile]	–
0.1 to 10	10 to 100	> 2000	–	C[C@@]1(O)CN(c2ccn(-c3cc(-c4c(F)cccc4C#N)nc4c3C(=O)NC4)n2)C[C@@](C)(O)C1 [I-145, 2-(4-(3-((3S,5S)-3,5-dihydroxy-3,5-dimethylpiperidin-1-yl)-1H-pyrazol-1-yl)-5-oxo-6,7-dihydro-5H-pyrrolo[3,4-b]pyridin-2-yl)-3-fluorobenzonitrile]	–
0.1 to 10	0.1 to 10	> 2000	–	N#Cc1cccc(F)c1-c1cc(-n2ccc(N3CCOC[C@H]3CO)n2)c2c(n1)CNC2=O [I-164, (R)-3-fluoro-2-(4-(3-(3-(hydroxymethyl)morpholino)-1H-pyrazol-1-yl)-5-oxo-6,7-dihydro-5H-pyrrolo[3,4-b]pyridin-2-yl)benzonitrile]	–
0.009 to 0.1	0.1 to 10	> 2000	–	N#Cc1cccc(F)c1-c1cc(-n2ccc(N3CC[C@@H](F)[C@@H](O)C3)n2)c2c(n1)CNC2=O [I-173, 3-fluoro-2-(4-(3-((3S,4R)-4-fluoro-3-hydroxypiperidin-1-yl)-1H-pyrazol-1-yl)-5-oxo-6,7-dihydro-5H-pyrrolo[3,4-b]pyridin-2-yl)benzonitrile]	–
0.1 to 10	10 to 100	> 2000	–	N#Cc1cccc(F)c1-c1cc(-n2cc3c(n2)CC(C(N)=O)CN3)c2c(n1)CNC2=O (stereo not drawn) [I-180, 2-(2-(2-cyano-6-fluorophenyl)-5-oxo-6,7-dihydro-5H-pyrrolo-[3,4-b]pyridin-4-yl)-4,5,6,7-tetrahydro-2H-pyrazolo[4,3-b]pyridine-6-carboxamide]	–
0.1 to 10	0.1 to 10	> 2000	–	N#Cc1cccc(F)c1-c1cc(-n2ccc(N3CCC4(C3)OCC(O)CO4)n2)c2c(n1)CNC2=O (stereo not drawn) [I-192, 3-fluoro-2-(4-(3-(8-hydroxy-6,10-dioxa-2-azaspiro[4.5]decan-2-yl)-1H-pyrazol-1-yl)-5-oxo-6,7-dihydro-5H-pyrrolo[3,4-b]pyridin-2-yl)benzonitrile]	–
0.009 to 0.1	10 to 100	–	100 to 2000	CO[C@H]1CCN(c2ccn(-c3cc(-c4c(F)cccc4C#N)nc4c3C(=O)NC4)n2)C[C@@]1(C)O [I-229, 3-fluoro-2-(4-(3-((3R,4S)-3-hydroxy-4-methoxy-3-methylpiperi-din-1-yl)-1H-pyrazol-1-yl)-5-oxo-6,7-dihydro-5H-pyrrolo[3,4-b]pyridin-2-yl)benzonitrile]	–
0.1 to 10	0.1 to 10	> 2000	–	N#Cc1cccc(F)c1-c1cc(-c2cc3n(n2)CC(O)CN3)c2c(n1)CNC2=O (stereo not drawn) [I-235, 3-fluoro-2-(4-(6-hydroxy-4,5,6,7-tetrahydropyrazolo[1,5-a]pyrimidin-2-yl)-5-oxo-6,7-dihydro-5H-pyrrolo[3,4-b]pyridin-2-yl)benzonitrile]	–

Structure (SMILES)	Ki (TYK2) [nM]	Ki (JAK2) [nM]	EC50 ([1]; Homo sapiens, PBMC) [nM]	EC50 [2] [nM]	EC50 [1] [nM]
CCNC(=O)Cc1ccn(-c2cc(-c3c(F)cccc3F)nc3c2C(=O)NC3)n1 [I-2, 2-(1-(2-(2,6-difluorophenyl)-5-oxo-6,7-dihydro-5H-pyrrolo[3,4-b]pyridin-4-yl)-1H-pyrazol-3-yl)-N-ethylacetamide]	10 to 100	≥ 1000	–	–	> 2000
